Experimental data from publication PMC6001238, “Iterative Chemical Engineering of Vancomycin Leads to Novel Vancomycin Analogs With a High in Vitro Therapeutic Index” (Frontiers in Microbiology, 2018).
Values after ≈ are worked out from the molar mass of the structure shown.

What was measured:
E. faecalis VSE 1 = test: MIC, broth microdilution, vancomycin-sensitive E. faecalis (VSE 1); format: cell-based, Enterococcus faecalis; conditions: for MIC: Enterococcus faecalis VSE 1 (vancomycin-sensitive), read-out: MIC; for MIC-fold improvement vs. vancomycin: VSE 1, ratio of MIC of vancomycin and MIC of analogue
Procedure, shortened: (§1)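 CLSI broth microdilution; water and uninoculated-broth controls; one arm supplemented with vancomycin, final 10 μM, given with analogue or control antibiotic.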

E. faecalis VRE 6 = test: MIC, broth microdilution, vancomycin-resistant E. faecalis VRE 6 (VanA); format: cell-based, Enterococcus faecalis; conditions: for MIC: Enterococcus faecalis VRE 6 (vancomycin-resistant), read-out: MIC; for MIC-fold improvement vs. vancomycin: VRE 6, ratio of MIC of vancomycin and MIC of analogue
Procedure, shortened: as §1

E. faecalis VRE 53 = test: MIC, broth microdilution, vancomycin-resistant E. faecalis VRE 53 (VanA); format: cell-based, Enterococcus faecalis; conditions: for MIC: Enterococcus faecalis VRE 53 (vancomycin-resistant), read-out: MIC; for MIC-fold improvement vs. vancomycin: VRE 53, ratio of MIC of vancomycin and MIC of analogue
Procedure, shortened: as §1

E. faecalis VRE 29 = test: MIC, broth microdilution, vancomycin-resistant E. faecalis VRE 29 (VanA); format: cell-based, Enterococcus faecalis; conditions: for MIC: Enterococcus faecalis VRE 29 (vancomycin-resistant), read-out: MIC; for MIC-fold improvement vs. vancomycin: VRE 29, ratio of MIC of vancomycin and MIC of analogue
Procedure, shortened: as §1

E. faecalis VRE 37 = test: MIC, broth microdilution, vancomycin-resistant E. faecalis VRE 37 (VanA); format: cell-based, Enterococcus faecalis; conditions: for MIC: Enterococcus faecalis VRE 37 (vancomycin-resistant), read-out: MIC; for MIC-fold improvement vs. vancomycin: VRE 37, ratio of MIC of vancomycin and MIC of analogue
Procedure, shortened: as §1

[1] = test system: Murine leukemia (L1210) cells; test: Cytostatic activity, L1210 cell proliferation; format: cell-based; conditions: mean ± SD of three experiments; highest concentration tested 250 µM; 2 days; read-out: Toxicity (IC50) L1210
Procedure, shortened: (§2)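 Coulter counter cell counts after 37°C culture with compound; IC50 = concentration giving 50% growth inhibition vs negative control. Incubation: L1210 2 d, CEM 3 d, HeLa 4 d. Suspension density before mixing with an equal volume of dilution: 300,000–500,000 cells/mL.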

[2] = test system: human T-lymphocyte (CEM) cells; test: Cytostatic activity, CEM cell proliferation; format: cell-based; conditions: mean ± SD of three experiments; highest concentration tested 250 µM; 3 days; read-out: Toxicity (IC50) CEM
Procedure, shortened: as §2

[3] = test system: human cervix carcinoma (HeLa) cells; test: Cytostatic activity, HeLa cell proliferation; format: cell-based; conditions: mean ± SD of three experiments; highest concentration tested 250 µM; 4 days; read-out: Toxicity (IC50) HeLa
Procedure, shortened: as §2

[4] = test system: L1210, CEM and HeLa cell lines; test: Cytostatic activity, average or summary over L1210, CEM and HeLa; format: cell-based; conditions: average of L1210, CEM and HeLa; read-out: Toxicity (IC50) Average
Procedure, shortened: as §2

[5] = test system: S. aureus VSSA (ATCC 6538); test: MIC, broth microdilution, vancomycin-sensitive S. aureus (VSSA/MSSA, ATCC 6538); format: cell-based, Staphylococcus aureus; conditions: for MIC: Staphylococcus aureus VSSA, read-out: MIC; for MIC-fold improvement vs. vancomycin: VSSA, ratio of MIC of vancomycin and MIC of analogue
Procedure, shortened: as §1

S. aureus VISA/HIP5827 = test: MIC, broth microdilution, vancomycin-intermediate S. aureus VISA HIP5827; format: cell-based, Staphylococcus aureus; conditions: for MIC: Staphylococcus aureus VISA/HIP5827, read-out: MIC; for MIC-fold improvement vs. vancomycin: VISA/HIP5827, ratio of MIC of vancomycin and MIC of analogue
Procedure, shortened: as §1

S. aureus VRSA = test: MIC, broth microdilution, vancomycin-resistant S. aureus (VRSA); format: cell-based, Staphylococcus aureus; conditions: for MIC: Staphylococcus aureus VRSA, read-out: MIC; for MIC-fold improvement vs. vancomycin: VRSA, ratio of MIC of vancomycin and MIC of analogue
Procedure, shortened: as §1

MRSA KS2 = test: MIC, broth microdilution, MRSA KS2; format: cell-based, Staphylococcus aureus; conditions: for MIC-fold improvement vs. vancomycin: MRSA KS2, ratio of MIC of vancomycin and MIC of analogue; for MIC: Staphylococcus aureus MRSA KS2, read-out: MIC
Procedure, shortened: as §1

MRSA KS6 = test: MIC, broth microdilution, MRSA KS6; format: cell-based, Staphylococcus aureus; conditions: for MIC-fold improvement vs. vancomycin: MRSA KS6, ratio of MIC of vancomycin and MIC of analogue; for MIC: Staphylococcus aureus MRSA KS6, read-out: MIC
Procedure, shortened: as §1

MRSA KS89 = test: MIC, broth microdilution, MRSA KS89; format: cell-based, Staphylococcus aureus; conditions: for MIC-fold improvement vs. vancomycin: MRSA KS8, ratio of MIC of vancomycin and MIC of analogue; for MIC: Staphylococcus aureus MRSA KS8, read-out: MIC
Procedure, shortened: as §1

MRSA KS1 = test: MIC, broth microdilution, MRSA KS1; format: cell-based, Staphylococcus aureus; conditions: for MIC-fold improvement vs. vancomycin: MRSA KS1, ratio of MIC of vancomycin and MIC of analogue; for MIC: Staphylococcus aureus MRSA KS1, read-out: MIC
Procedure, shortened: as §1

Row | MIC (E. faecalis VSE 1) | MIC-fold improvement vs. vancomycin (E. faecalis VSE 1) | MIC (E. faecalis VRE 6) | MIC-fold improvement vs. vancomycin (E. faecalis VRE 6) | MIC (E. faecalis VRE 53) | MIC-fold improvement vs. vancomycin (E. faecalis VRE 53) | MIC (E. faecalis VRE 29) | MIC-fold improvement vs. vancomycin (E. faecalis VRE 29) | MIC (E. faecalis VRE 37) | MIC [5] | MIC-fold improvement vs. vancomycin [5] | MIC (S. aureus VISA/HIP5827) | MIC-fold improvement vs. vancomycin (S. aureus VISA/HIP5827) | MIC (S. aureus VRSA) | MIC-fold improvement vs. vancomycin (S. aureus VRSA) | MIC-fold improvement vs. vancomycin (MRSA KS2) | SMILES | IC50 [1] | IC50 [2] | IC50 [3] | IC50 [4] | further results
1 | 0.78 µM (≈ 1.29 µg/mL) | 2 | 25 µM (≈ 41.2 µg/mL) | 8 | 25 µM (≈ 41.2 µg/mL) | 16 | 50 µM (≈ 82.5 µg/mL) | 8 | 50 µM (≈ 82.5 µg/mL) | 0.39 µM (≈ 0.643 µg/mL) | 2 | 0.78 µM (≈ 1.29 µg/mL) | 8 | 1.56 µM (≈ 2.57 µg/mL) | 64 | 2 | CNC(CC(C)C)C(=O)NC1C(=O)NC(CC(N)=O)C(=O)NC2C(=O)NC3C(=O)NC(C(=O)NC(C(=O)NCCCNC(=O)c4nc5ccccc5[nH]4)c4cc(O)cc(O)c4-c4cc3ccc4O)C(O)c3ccc(c(Cl)c3)Oc3cc2cc(c3OC2OC(CO)C(O)C(O)C2OC2CC(C)(N)C(O)C(C)O2)Oc2ccc(cc2Cl)C1O (centres unmarked) [Vanc-52] | ≥ 250 µM | > 250 µM | 104 ± 13 µM | 201 µM | MIC-fold improvement vs. vancomycin (E. faecalis VRE 37): 8; MIC (MRSA KS2): 0.39 µM (≈ 0.643 µg/mL); MIC-fold improvement vs. vancomycin (MRSA KS6): 1; MIC (MRSA KS6): 0.78 µM (≈ 1.29 µg/mL); MIC-fold improvement vs. vancomycin (MRSA KS89): 1; MIC (MRSA KS89): 0.78 µM (≈ 1.29 µg/mL); MIC-fold improvement vs. vancomycin (MRSA KS1): 2; MIC (MRSA KS1): 0.39 µM (≈ 0.643 µg/mL)
2 | 0.78 µM (≈ 1.28 µg/mL) | 2 | 12.5 µM (≈ 20.4 µg/mL) | 16 | 12.5 µM (≈ 20.4 µg/mL) | 32 | 25 µM (≈ 40.9 µg/mL) | 16 | 25 µM (≈ 40.9 µg/mL) | 0.39 µM (≈ 0.638 µg/mL) | 2 | 0.78 µM (≈ 1.28 µg/mL) | 8 | 0.39 µM (≈ 0.638 µg/mL) | 256 | 2 | CN[C@H](CC(C)C)C(=O)N[C@H]1C(=O)N[C@@H](CC(N)=O)C(=O)N[C@H]2C(=O)N[C@H]3C(=O)N[C@H](C(=O)N[C@H](C(=O)NCCNC(=O)/C=C/c4ccc(C)cc4)c4cc(O)cc(O)c4-c4cc3ccc4O)[C@H](O)c3ccc(c(Cl)c3)Oc3cc2cc(c3O[C@@H]2O[C@H](CO)[C@@H](O)[C@H](O)[C@H]2O[C@H]2C[C@](C)(N)[C@H](O)[C@H](C)O2)Oc2ccc(cc2Cl)[C@H]1O [Vanc-53] | 176 ± 18 µM | 152 ± 43 µM | 176 ± 103 µM | 168 µM | MIC-fold improvement vs. vancomycin (E. faecalis VRE 37): 16; MIC (MRSA KS2): 0.39 µM (≈ 0.638 µg/mL); MIC-fold improvement vs. vancomycin (MRSA KS6): 2; MIC (MRSA KS6): 0.39 µM (≈ 0.638 µg/mL); MIC-fold improvement vs. vancomycin (MRSA KS89): 2; MIC (MRSA KS89): 0.39 µM (≈ 0.638 µg/mL); MIC-fold improvement vs. vancomycin (MRSA KS1): 2; MIC (MRSA KS1): 0.39 µM (≈ 0.638 µg/mL)

Row | SMILES | MIC (E. faecalis VSE 1) | MIC-fold improvement vs. vancomycin (E. faecalis VSE 1) | MIC (E. faecalis VRE 6) | MIC-fold improvement vs. vancomycin (E. faecalis VRE 6) | MIC (E. faecalis VRE 53) | MIC-fold improvement vs. vancomycin (E. faecalis VRE 53) | MIC (E. faecalis VRE 29) | MIC-fold improvement vs. vancomycin (E. faecalis VRE 29) | MIC (E. faecalis VRE 37) | MIC [5] | MIC-fold improvement vs. vancomycin [5] | MIC (S. aureus VISA/HIP5827) | MIC-fold improvement vs. vancomycin (S. aureus VISA/HIP5827) | MIC (S. aureus VRSA) | MIC-fold improvement vs. vancomycin (S. aureus VRSA) | MIC-fold improvement vs. vancomycin (MRSA KS2) | IC50 [1] | IC50 [2] | IC50 [3] | IC50 [4] | further results
3 | CN[C@H](CC(C)C)C(=O)N[C@H]1C(=O)N[C@@H](CC(N)=O)C(=O)N[C@H]2C(=O)N[C@H]3C(=O)N[C@H](C(=O)N[C@H](C(=O)NCCNC(=O)/C=C/c4ccc(Cl)cc4Cl)c4cc(O)cc(O)c4-c4cc3ccc4O)[C@H](O)c3ccc(c(Cl)c3)Oc3cc2cc(c3O[C@@H]2O[C@H](CO)[C@@H](O)[C@H](O)[C@H]2O[C@H]2C[C@](C)(N)[C@H](O)[C@H](C)O2)Oc2ccc(cc2Cl)[C@H]1O [Vanc-51] | 0.39 µM (≈ 0.659 µg/mL) | 4 | 6.25 µM (≈ 10.6 µg/mL) | 32 | 12.5 µM (≈ 21.1 µg/mL) | 32 | 12.5 µM (≈ 21.1 µg/mL) | 32 | 12.5 µM (≈ 21.1 µg/mL) | 0.39 µM (≈ 0.659 µg/mL) | 2 | 0.78 µM (≈ 1.32 µg/mL) | 8 | 0.39 µM (≈ 0.659 µg/mL) | 256 | 4 | 80 ± 13 µM | 82 ± 21 µM | 106 ± 21 µM | 89 µM | MIC (MRSA KS2): 0.20 µM (≈ 0.338 µg/mL); MIC-fold improvement vs. vancomycin (MRSA KS6): 4; MIC (MRSA KS6): 0.20 µM (≈ 0.338 µg/mL); MIC-fold improvement vs. vancomycin (MRSA KS89): 4; MIC (MRSA KS89): 0.20 µM (≈ 0.338 µg/mL); MIC-fold improvement vs. vancomycin (MRSA KS1): 4; MIC (MRSA KS1): 0.20 µM (≈ 0.338 µg/mL)
